Measured values taken from article PMC111503 (Malaria Journal, 2002).
Read-outs that look alike come from different tables or passages of the source.

How the values were obtained:
[1] = target: recombinant PfPP1 (Plasmodium falciparum, UniProt Q8ILV1); assay: biochemical; type: biochemical
[2] = system: PP2B; settings: cited from earlier work
[3] = system: PP2A; settings: read-out: characteristic IC50; cited from earlier work
[4] = system: PP1; settings: cited from earlier work
[5] = system: other phosphatases; settings: cited from earlier work
[6] = read-out: IC50 for inhibition of PfPP1

SMILES: [F-].[Na+] [NaF]
- IC50 ([1]; read-out: IC50 for inhibition of PfPP1, recombinant PfPP1, data not shown): 2500 µM

SMILES: C=C1[C@@H](O)[C@@H]2O[C@]3(CC[C@H](/C=C/[C@@H](C)[C@@H]4CC(C)=C[C@@]5(O[C@H](C[C@@](C)(O)C(=O)O)CC[C@H]5O)O4)O3)CC[C@H]2O[C@@H]1[C@@H](O)C[C@H](C)[C@H]1O[C@@]2(CCCCO2)CC[C@H]1C [OA, okadaic acid]
- sensitivity of PP2B to toxin [2]: highly resistant
- IC50 [3]: 0.001 to 0.005 µM
- IC50 ([4]; read-out: characteristic IC50): 0.02 to 0.08 µM
- IC50 [1]: 0.1 µM

SMILES: O=P(O)(O)O [inorganic orthophosphate]
- IC50 [1, 6]: 10000 µM

SMILES: O=P(O)(O)OP(=O)(O)O [pyrophosphate]
- IC50 [1, 6]: 90 µM

SMILES: CO[C@H]([C@H](O)CC(=O)[C@@H](C)[C@@H](O)CC[C@@H](C)[C@@H]1O[C@]2(CC[C@@H](C)[C@H](CC[C@H](C)C(C)=O)O2)CC[C@@H]1C)[C@H](OC(=O)C[C@@H](O)C1=C(C)C(=O)OC1=O)C(C)C [tautomycin]
- inhibition of other phosphatases [5]: fails to inhibit
- effect on PP1 versus PP2A ([4]; PP1 and PP2A compared): nearly equally
- IC50 [1]: 0.0008 µM
